Data as given in PubChem BioAssay AID248 (DTP/NCI, 2004).
Several values for one entry are separate records, joined by “and”; a condition that tells them apart may be missing. Equal values may be shown once. Inconclusive results and toxic doses are left out. No stated cut-off is given here; in the data, active means T/C of 150% or more; inactive means T/C below 125%.

System: L1210 leukemia ip in BDF1 mice, survival T/C
Assay: NCI In Vivo Anticancer Drug Screen. Data for tumor model L1210 Leukemia (intraperitoneal) in B6D2F1 (BDF1) mice
Details: endpoint: mean survival time, higher = longer survival
Method in brief: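 Antitumor effect is assessed in tumor-bearing animals. Survival in the compound arm is compared with a vehicle-dosed control arm and expressed as their quotient.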

[1] = dose: 100.0 mg/kg/injection, schedule: Q01DX009 (ip), vehicle: Klucel (hydroxypropylcellulose) (HPC)
[2] = dose: 200.0 mg/kg/injection, schedule: Q01DX009 (ip), vehicle: Klucel (hydroxypropylcellulose) (HPC)
[3] = dose: 100.0 mg/kg/injection, schedule: Q01DX001 (ip), vehicle: saline
[4] = dose: 200.0 mg/kg/injection, schedule: Q01DX001 (ip), vehicle: saline
[5] = dose: 400.0 mg/kg/injection, schedule: Q01DX001 (ip), vehicle: saline
[6] = dose: 100.0 mg/kg/injection, schedule: Q04DX003 (ip), vehicle: Klucel (hydroxypropylcellulose) (HPC)
[7] = dose: 200.0 mg/kg/injection, schedule: Q04DX003 (ip), vehicle: Klucel (hydroxypropylcellulose) (HPC)
[8] = dose: 400.0 mg/kg/injection, schedule: Q01DX009 (ip), vehicle: Klucel (hydroxypropylcellulose) (HPC)
[9] = dose: 400.0 mg/kg/injection, schedule: Q04DX003 (ip), vehicle: Klucel (hydroxypropylcellulose) (HPC)
[10] = dose: 100.0 mg/kg/injection, schedule: Q04DX003 (ip), vehicle: saline with Tween-80
[11] = dose: 200.0 mg/kg/injection, schedule: Q04DX003 (ip), vehicle: saline with Tween-80
[12] = dose: 400.0 mg/kg/injection, schedule: Q04DX003 (ip), vehicle: saline with Tween-80
[13] = dose: 50.0 mg/kg/injection, schedule: Q01DX009 (ip), vehicle: Klucel (hydroxypropylcellulose) (HPC)
[14] = dose: 75.0 mg/kg/injection, schedule: Q01DX001 (ip), vehicle: saline
[15] = dose: 100.0 mg/kg/injection, schedule: Q04DX003 (ip), vehicle: saline
[16] = dose: 150.0 mg/kg/injection, schedule: Q01DX001 (ip), vehicle: saline
[17] = dose: 200.0 mg/kg/injection, schedule: Q04DX003 (ip), vehicle: saline
[18] = dose: 400.0 mg/kg/injection, schedule: Q04DX003 (ip), vehicle: saline
[19] = dose: 100.0 mg/kg/injection, schedule: Q01DX001 (ip), vehicle: Klucel (hydroxypropylcellulose) (HPC)

Measured: T/C

C=CCn1c(-c2cccs2)nc2c(=S)nc[nH]c21
inactive: dose: 65.0 mg/kg/injection, schedule: Q01DX009 (ip), vehicle: steriod suspending solution 95 % of control | dose: 180.0 mg/kg/injection, schedule: Q01DX009 (ip), vehicle: steriod suspending solution 88 % of control | dose: 400.0 mg/kg/injection, schedule: Q01DX001 (ip), vehicle: steriod suspending solution 89 % of control | dose: 800.0 mg/kg/injection, schedule: Q01DX001 (ip), vehicle: steriod suspending solution 89 % of control

CC(C)COC(=O)c1ccc(NC(=S)Nc2ccccc2)cc1
inactive: [1] 93 % of control | [2] 93 % of control

CCCCCOC(=O)Nc1ccc(S(=O)(=O)N(C)C)cc1
inactive: [3] 100 % of control | [4] 108 % of control | [5] 100 % of control

NC(CCl)=NC1CCCC1
inactive: dose: 25.0 mg/kg/injection, schedule: Q04DX002 (ip), vehicle: saline 109 % of control | dose: 50.0 mg/kg/injection, schedule: Q04DX002 (ip), vehicle: saline 102 % of control | dose: 100.0 mg/kg/injection, schedule: Q04DX002 (ip), vehicle: saline 121 % of control

c1ccc(C2(c3ccccc3)CC([P+](c3ccccc3)(c3ccccc3)c3ccccc3)=NN2)cc1
inactive: [3] 108 % of control | [4] 115 % of control

Oc1cc(Br)ccc1C=Nc1ccc(N2CCCCC2)cc1
inactive: [1] 92 % of control | [6] 100 % of control | [2] 94 % of control | [7] 101 % of control | [8] 89 % of control | [9] 103 % of control

Oc1ccccc1OCCOCCOc1ccccc1O
inactive: dose: 100.0 mg/kg/injection, schedule: Q04DX002 (ip), vehicle: other 90 % of control

OC(/C=C/c1ccccc1)CC(O)(C(F)(F)F)C(F)(F)F (centres undefined)
inactive: [10] 103 % of control | [11] 110 % of control | [12] 110 % of control

CC(C)S(=O)(=O)/C(Cl)=C(/Cl)C(Cl)=C(Cl)Cl
inactive: dose: 12.5 mg/kg/injection, schedule: Q01DX009 (ip), vehicle: Klucel (hydroxypropylcellulose) (HPC) 106 % of control | dose: 25.0 mg/kg/injection, schedule: Q01DX009 (ip), vehicle: Klucel (hydroxypropylcellulose) (HPC) 101 % of control | [13] 95 % of control | [1] 87 % of control

O=[N+]([O-])c1ccc(O)c(CNCCCNCc2cc([N+](=O)[O-])ccc2O)c1
inactive: [3] 102 % of control | [4] 98 % of control | [5] 102 % of control

CCOC(=O)/C=C\n1c(=O)cc(C)c2ccccc21
inactive: [1] 98 % of control | [6] 89 % of control | [2] 108 % of control | [7] 92 % of control | [8] 108 % of control | [9] 87 % of control

Cn1nnn2c(-c3ccccc3)nnc12
inactive: dose: 100.0 mg/kg/injection, schedule: Q01DX009 (ip), vehicle: saline with Tween-80 97 % of control | [10] 105 % of control | dose: 200.0 mg/kg/injection, schedule: Q01DX009 (ip), vehicle: saline with Tween-80 105 % of control | [11] 97 % of control | [12] 100 % of control

CCC(=O)Oc1ccc(/C=N/NC(N)=S)nc1
inactive: dose: 100.0 mg/kg/injection, schedule: Q04DX002 (ip), vehicle: saline with Tween-80 113 % of control

Cc1cccc(OS(=O)(=O)c2ccccc2[N+](=O)[O-])c1
inactive: dose: 100.0 mg/kg/injection, schedule: Q01DX009 (ip), vehicle: saline sonified 103 % of control | [6] 93 % of control | [7] 96 % of control | dose: 400.0 mg/kg/injection, schedule: Q01DX009 (ip), vehicle: saline sonified 111 % of control | [9] 90 % of control

CC(C)(SCc1ccccc1)C(N)C(=O)O (centres undefined)
inactive: [14] 104 % of control | dose: 100.0 mg/kg/injection, schedule: Q01DX009 (ip), vehicle: saline 91 % of control | [15] 105 % of control | [16] 98 % of control | dose: 200.0 mg/kg/injection, schedule: Q01DX009 (ip), vehicle: saline 98 % of control | [17] 102 % of control | dose: 400.0 mg/kg/injection, schedule: Q01DX009 (ip), vehicle: saline 91 % of control | [18] 97 % of control

COc1cc([N+](=O)[O-])ccc1NC(=O)c1c(Br)c(Br)c(Br)c(Br)c1C(=O)O
inactive: [1] 101 % of control | [2] 106 % of control | [8] 106 % of control

c1cc[c]([Hg][S]c2nc3ccccc3s2)cc1
inactive: dose: 50.0 mg/kg/injection, schedule: Q01DX001 (ip), vehicle: carboxymethylcellulose (CMC) 96 % of control | dose: 100.0 mg/kg/injection, schedule: Q01DX001 (ip), vehicle: carboxymethylcellulose (CMC) 108 % of control

CN(C)c1ccc(C(N)=O)cn1
inactive: dose: 16.5 mg/kg/injection, schedule: Q01DX009 (ip), vehicle: saline with Tween-80 102 % of control | dose: 29.0 mg/kg/injection, schedule: Q04DX003 (ip), vehicle: saline 112 % of control | dose: 45.0 mg/kg/injection, schedule: Q04DX003 (ip), vehicle: saline 120 % of control | dose: 66.0 mg/kg/injection, schedule: Q04DX003 (ip), vehicle: saline 113 % of control | [15] 114 % of control | [17] 102 % of control

C=CC(=O)NCCN(C)C
inactive: [14] 104 % of control | [16] 93 % of control | dose: 300.0 mg/kg/injection, schedule: Q01DX001 (ip), vehicle: saline 104 % of control

CCCC(O)C(C)[N+](=O)[O-] (centres undefined)
inactive: [15] 96 % of control | [17] 102 % of control | [18] 96 % of control

CN(CCO)C(=O)C1C(c2ccccc2)C1c1ccccc1 (centres undefined)
inactive: dose: 100.0 mg/kg/injection, schedule: Q04DX002 (ip), vehicle: Klucel (hydroxypropylcellulose) (HPC) 100 % of control | dose: 200.0 mg/kg/injection, schedule: Q04DX002 (ip), vehicle: Klucel (hydroxypropylcellulose) (HPC) 94 % of control | dose: 400.0 mg/kg/injection, schedule: Q04DX002 (ip), vehicle: Klucel (hydroxypropylcellulose) (HPC) 97 % of control

C1CCC(NCCNC2CCCCC2)CC1
inactive: [14] 98 % of control

COCn1cnc2c(ccn2C2OC(CO)C(O)C2O)c1=O (centres undefined)
inactive: dose: 50.0 mg/kg/injection, schedule: Q01DX001 (ip), vehicle: saline 104 % of control | [3] 93 % of control | [4] 106 % of control | [5] 106 % of control

O=C(/C=C(\Cl)c1ccc2c(c1)OCO2)OC/C=C\c1ccc2c(c1)OCO2
inactive: [13] 94 % of control | [19] 93 % of control | [1] 92 % of control | dose: 200.0 mg/kg/injection, schedule: Q01DX001 (ip), vehicle: Klucel (hydroxypropylcellulose) (HPC) 88 % of control | [2] 92 % of control

CCCCNC(=O)C(F)(F)F
inactive: dose: 100.0 mg/kg/injection, schedule: Q01DX001 (ip), vehicle: other 100 % of control | dose: 200.0 mg/kg/injection, schedule: Q01DX001 (ip), vehicle: other 98 % of control | dose: 400.0 mg/kg/injection, schedule: Q01DX001 (ip), vehicle: other 98 % of control

CN(C)NC(=O)NCCCl
inactive: [15] 106 % of control | [17] 105 % of control | [18] 108 % of control

O=[N+]([O-])c1ccc(C=Nc2ccc([N+](=O)[O-])cc2)cc1
inactive: [15] 90 % of control | [17] 86 % of control | [18] 93 % of control

CCCCCCCCCCCC(=O)NC(=S)Nc1ccccc1OCC
inactive: [6] 89 % of control | [7] 90 % of control | [9] 89 % of control

COC(=O)c1ccccc1OC(=S)N(C)C
inactive: [10] 113 % of control | [11] 103 % of control | [12] 114 % of control

CN(C)c1ccc(/C=N\NC(=O)N/N=C/c2ccc(N(C)C)cc2)cc1
inactive: dose: 25.0 mg/kg/injection, schedule: Q01DX001 (ip), vehicle: Klucel (hydroxypropylcellulose) (HPC) 92 % of control | dose: 50.0 mg/kg/injection, schedule: Q01DX001 (ip), vehicle: Klucel (hydroxypropylcellulose) (HPC) 97 % of control | [19] 97 % of control and 90 % of control
